Our source for the EC50 values is patent publication US20230075856A1, “CYCLIC SULFAMIDE COMPOUNDS FOR TREATMENT OF HBV” (Assembly Biosciences, Inc., priority 2018, published 2023).

Where only a bound is given, the exact number is not on record here.

One may read the EC50 as the concentration at which the effect is half-maximal.

The subject of one test is HBV viral load production from HepAD38 cells. Kind of test: Viral production from HepAD38 cells: viral load in supernatant by qPCR of the HBV core sequence. The class given is cell-based. The settings on record: 5 days incubation, qPCR of supernatant HBV DNA vs DMSO control, read-out: viral load lowering EC50 (Activity). In short, it runs like this: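 Viral load was measured by qPCR of the HBV core region in supernatant, quantified against DNA standards and compared with DMSO wells. Cells (50,000/well, tetracycline withdrawn, 2% FBS) received compound from 10 μM final for 5 days; EC50 from four-parameter nonlinear regression.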
For `CN1C(C(=O)Nc2ccc(F)c(Cl)c2)CC(C(=O)NC2CCCc3nc(-c4ccc(OCCN5CCCCC5)cc4)sc32)NS1(=O)=O` (single isomer, unassigned) [Compound 948-ISOMER-B, N3-(3-chloro-4-fluoro-phenyl)-2-methyl-1,1-dioxo-N5-[2-[4-[2-(1-piperidyl)ethoxy]phenyl]-4,5,6,7-tetrahydro-1,3-benzothiazol-7-yl]-1,2,6-thiadiazinane-3,5-dicarboxamide], the EC50 lay in the range of 100 to 10000 nM.

Turning to `CN1C(C(=O)Nc2ccc(F)c(Cl)c2)CC(C(=O)NCc2cn(-c3ccccc3)cn2)NS1(=O)=O` (single isomer, unassigned) [1145-ISOMER-B, N3-(3-chloro-4-fluoro-phenyl)-2-methyl-1,1-dioxo-N5-[(1-phenylimidazol-4-yl)methyl]-1,2,6-thiadiazinane-3,5-dicarboxamide], the EC50 fell in the range of 100 to 10000 nM.

For the compound `CN1C(C(=O)Nc2ccc(F)c(Cl)c2)CC(C(=O)NCc2cnc(-c3cccc(Cl)c3)s2)NS1(=O)=O` (single isomer, unassigned; isomer-b) [Compound 913-ISOMER-B, N3-(3-chloro-4-fluoro-phenyl)-N5-[[2-(3-chlorophenyl)thiazol-5-yl]methyl]-2-methyl-1,1-dioxo-1,2,-thiadiazinane-3,5-dicarboxamide], the EC50 is below 50 nM.

With `CCc1nc(CNC(=O)C2CC(C(=O)Nc3ccc(F)c(Cl)c3)N(C)S(=O)(=O)N2)cs1` (single isomer, unassigned) [Compound 742-ISOMER-B, N3-(3-chloro-4-fluoro-phenyl)-N5-[(2-ethylthiazol-4-yl)methyl]-2-methyl-1,1-dioxo-1,2,6-thiadiazinane-3,5-dicarboxamide], the EC50 is below 50 nM.

With `CN1C(C(=O)Nc2ccc(F)c(Cl)c2)CC(C(=O)NCc2cc(-c3ccc(F)cc3)nn2C)NS1(=O)=O` (single isomer, unassigned) [1143-ISOMER-B, N3-(3-chloro-4-fluoro-phenyl)-N5-[[5-(4-fluorophenyl)-2-methyl-pyrazol-3-yl]methyl]-2-methyl-1,1-dioxo-1,2,6-thiadiazinane-3,5-dicarboxamide], the EC50 was below 50 nM. In the case of `CN1C(C(=O)Nc2ccc(F)c(Cl)c2)CC(C(=O)NCc2cnc(C(F)(F)F)s2)NS1(=O)=O` (single isomer, unassigned) [Compound 498-ISOMER-B, N3-(3-chloro-4-fluoro-phenyl)-2-methyl-1,1-dioxo-N5-[[2-(trifluoromethyl)thiazol-5-yl]methyl]-1,2,6-thiadiazinane-3,5-dicarboxamide], the 50% effective concentration (EC50) fell in the range of 50 to 100 nM.

Turning to `C[C@@H](NC(=O)C1CC(C(=O)Nc2ccc(F)c(Cl)c2)N(C)S(=O)(=O)N1)c1ccc(F)cc1` (single isomer, unassigned; isomer-a) [493-R-ISOMER-A], the EC50 was below 50 nM.

Staying with this test, now noted: Hepatitis B virus, HePAD38, 120 h, 5 days incubation, qPCR of supernatant HBV DNA vs DMSO control, read-out: viral load lowering EC50 (Activity).
As for `CN(C)CCCCc1cnn(-c2ncc(CNC(=O)C3CC(C(=O)Nc4ccc(F)c(Cl)c4)N(C)S(=O)(=O)N3)s2)c1` (stereo not shown) [Compound 1197], the EC50 fell in the range of 100 to 10000 nM. Same read-out and setting: next, `CN1C(C(=O)Nc2ccc(F)c(Cl)c2)CC(C(=O)NCc2cnc(-c3ccc(C#N)cc3F)s2)NS1(=O)=O` (single isomer, unassigned) [Compound 920-ISOMER-A, N3-(3-chloro-4-fluoro-phenyl)-N5-[[2-(4-cyano-2-fluoro-phenyl)thiazol-5-yl]methyl]-2-methyl-1,1-dioxo-1,2,6-thiadiazinane-3,5-dicarboxamide]: 100 to 10000 nM; `COC(=O)N1CCC(NC(=O)C2CC(C(=O)Nc3ccc(F)c(Cl)c3)N(C)S(=O)(=O)N2)CC1` (stereo not shown) [Compound 477]: below 50 nM; `CN1C(C(=O)Nc2ccc(F)c(Cl)c2)CC(C(=O)NC2CCOC2)NS1(=O)=O` (stereo not shown) [Compound 706]: 100 to 10000 nM. On the same count and under the same terms, next, `CN(C)CC(C)(C)COc1ccc(-c2ncc(CNC(=O)C3CC(C(=O)Nc4ccc(F)c(Cl)c4)N(C)S(=O)(=O)N3)s2)cc1` (stereo not shown) [Compound 943]: below 50 nM; `CN1C(C(=O)Nc2ccc(F)c(Cl)c2)CC(C(=O)NCCC2CCCO2)NS1(=O)=O` (stereo not shown) [Compound 1161]: 100 to 10000 nM. The same measure, in the same setting: next, `CN1C(C(=O)Nc2ccc(F)c(Cl)c2)CC(C(=O)NCc2ccccc2-n2ccnc2)NS1(=O)=O` (single isomer, unassigned) [Compound 910-ISOMER-B, N3-(3-chloro-4-fluoro-phenyl)-N5-[(2-imidazol-1-ylphenyl)methyl]-2-methyl-1,1-dioxo-1,2,6-thiadiazinane-3,5-dicarboxamide]: 100 to 10000 nM; `Cc1nc(-c2ccccc2)sc1CNC(=O)C1CC(C(=O)Nc2ccc(F)c(C#N)c2)N(C)S(=O)(=O)N1` (single isomer, unassigned) [1136-ISOMER-A, N3-(3-cyano-4-fluoro-phenyl)-2-methyl-N5-[(4-methyl-2-phenyl-thiazol-5-yl)methyl]-1,1-dioxo-1,2,6-thiadiazinane-3,5-dicarboxamide]: below 50 nM; `CN1C(C(=O)Nc2ccc(F)c(Cl)c2)CC(C(=O)NC2CCN(c3ncccn3)CC2)NS1(=O)=O` (single isomer, unassigned) [Compound 855-ISOMER-A, N3-(3-chloro-4-fluoro-phenyl)-2-methyl-1,1-dioxo-N5-(1-pyrimidin-2-yl-4-piperidyl)-1,2,6-thiadiazinane-3,5-dicarboxamide]: below 50 nM. Consider `C[C@@H](NC(=O)C1CC(C(=O)Nc2ccc(F)c(Cl)c2)N(C)S(=O)(=O)N1)c1ccc(C(F)(F)F)cc1` (single isomer, unassigned) [493-R-ISOMER-B], for which the 50% effective concentration (EC50) lay within 100 to 10000 nM. `COC(=O)N1CCC(NC(=O)C2CC(C(=O)Nc3ccc(F)c(C#N)c3)N(C)S(=O)(=O)N2)CC1` (stereo not shown) [Compound 770]: the half-maximal effective concentration (EC50) fell in the range of 50 to 100 nM. On to `CN1C(C(=O)Nc2ccc(F)c(Cl)c2)CC(C(=O)NCc2cnc(-c3ccc(OCCCN4CCCC4)cc3)s2)NS1(=O)=O` (stereo not shown) [Compound 928], for which the EC50 was in the range of 50 to 100 nM.

For `CN1C(C(=O)Nc2ccc(F)c(Cl)c2)CC(C(=O)NC2CC3CCC2C3)NS1(=O)=O` (stereo not shown) [Compound 858], the EC50 was in the range of 100 to 10000 nM. On the same count and under the same terms, next, `CN1C(C(=O)Nc2ccc(F)c(Cl)c2)CC(C(=O)NCC2CCCCC2)NS1(=O)=O` (single isomer, unassigned) [1160-ISOMER-A, N3-(3-chloro-4-fluoro-phenyl)-N5-(cyclohexylmethyl)-2-methyl-1,1-dioxo-1,2,6-thiadiazinane-3,5-dicarboxamide]: 50 to 100 nM; `CN1C(C(=O)N(Cc2cnc(-c3cscn3)s2)c2ccc(F)c(Cl)c2)CC(C(N)=O)NS1(=O)=O` (single isomer, unassigned) [Compound 929-ISOMER-A, N3-(3-chloro-4-fluoro-phenyl)-2-methyl-1,1-dioxo-N-[(2-thiazol-4-ylthiazol-5-yl)methyl]-1,2,6-thiadiazinane-3,5-dicarboxamide]: 100 to 10000 nM; `Cc1cc(CNC(=O)C2CC(C(=O)Nc3ccc(F)c(C#N)c3)N(C)S(=O)(=O)N2)n(C)n1` (stereo not shown) [Compound 773]: 100 to 10000 nM. Still for that read-out and setting: next, `CN1C(C(=O)Nc2ccc(F)c(Cl)c2)CC(C(=O)NCc2sc(-c3ccccc3)nc2C(F)(F)F)NS1(=O)=O` (stereo not shown) [Compound 1063]: below 50 nM; `CN1C(C(=O)Nc2ccc(F)c(Cl)c2)CC(C(=O)NC2CCCc3nc(-c4ccccc4)sc32)NS1(=O)=O` (stereo not shown) [Compound 917]: below 50 nM.
